Consider one compound from US20080286388A1, “Pharmaceutical Composition and Non Dependence Coffee Comprising Edible Carboxylic Acid and/or Its Acid Salts and Coffeine” (priority 2004, published 2008).

Test [1] concerns mouse's leaching cell solution (abdominal cavity cells), histamine release by 48/80 compound. In words: Drug inhibiting effect on histamine leaching from mouse abdominal cavity cells treated with 48/80 compound. The settings on record: Mus musculus, testing drug 100 μg/ml. Type of test: cell-based. How it is done: This is a comparative testing for drug depressing effect on the amount of leaching histamines when is treated with 48/80 (Sigma, St. MO, USA) compound.
(1). Preparation of Leaching Cell Solution from Mouse Body.
A mouse is killed and bloodletting. Then 10 ml of Locke's solution containing 0.1% bovine serum protein is injected into its abdominal cavity. After abdominal cavity being light massaged, the cavity is cut and the Locke's solution is removed. Cavity is washed with another 5 ml of Locke's solution, and this washed solution is added to the latter one. This combined solution is centrifuged at 600 rpm for 5 minutes. The sediments are washed with 5 ml of cool Locke's solution. Adding 3 ml of cold Locke's solution to the washed sediments, then a leached cell solution of abdominal cavity is obtained. (The composition of Locke's solution is: NaCL […], KCL 0.2%, CaCL2 0.15%, glucose 1.0%, in w/v, and the rest distillated water.)
(2). Drug Inhibiting Effect on the Amount of Leaching Histamines when Treated with 48/80 Compound.
1.0 ml of each of those solutions in last term is mixed with 0.3 ml of mouse's leaching cell solution and 0.5 ml of Locke's solution. This mixture is cultivated at 37° C. for 5 minutes. Then adding 0.2 ml of Locke's solution of 48/80 compound (1 mg/100 ml) and cultivated at 37° C. for 10 minutes. Then the reaction is stopped by cooling, and centrifuged at 2,500 rpm for 10 minutes. 1.7 ml of decanted solution and 0.3 ml of sediments are obtained.
0.1 ml of water and 0.2 ml of 100% trichloroacetic acid are added to the decanted solution. 1.5 ml of Locke's solution and 0.2 ml of 100% trichloroacetic acid are added to the sediments washed solution. They are cultivated at room temperature for 30 minutes. After cultivation, the mixtures are centrifuged at 3,000 rpm for 15 minutes, respectively. 0.35 ml of each of the former two solutions is sampled. In each sample, 1.65 ml of water, 0.4 ml of 1N NaOH and 0.1 ml of 0.5% OPT (o-phthalic aldehyde) in methanol are added and cultivated at room temperature for 4 minutes. The reaction is stopped by adding 0.2 ml of 2M citric acid. And finally, determine the amount of released histamines in the tested solution by fluorescence method. By the analysis, results of the inhibiting rate of histamines could be calculated.
Locke's solution is instead of each drug in control group, and instead of both drug and 48/80 compound solution in blank group.
The histamine releasing rate (A) can be calculated by following equation. […] Where (Hs) is the total amount of histamine in the decanted solution, and (Hr) is the total amount of histamine in the sediment. (A)=[(Hs)/{(Hs)+(Hr)}]×100%. Then the inhibiting rate is:
=100−[(A−A in blank group)/(A−A in control group)]×100%.

Another test concerns mice. In words: Anti-delayed type allergy reaction, oxazolone ear inflammation. As to conditions: drug 2.0 w/v % in oxazolone acetone solution, 10 μl on right ear, 24 hr. Type of test: in vivo, mouse. Here is the method:
The weights of testing mice are ranging from 20 g to 30 g. They are coated with 0.1 ml of oxazolone alcohol solution (0.5 w/v %) on the hair cleaned part of abdomen. […] After 24 hr, the mouse is killed by ether and punched a circle area of a diameter of 5.5 mm on both right and left ears in corresponding part by a puncher machine (portions of drug coated and the blank). The punched portions are weighed and the inflammation rates calculated. The control group are coated only with the oxazolone acetone solution (0.5 w/v %). The inflammation inhibiting rates of each drug are calculated by following equation: Inflammation inhibiting rate (%)=[(weight of drug-coated right ear)−(weight of non-drug-coated left ear)]×100%/(weight of non-drug-coated left ear)

The test system of the next test is person. As to the kind of experiment: Tests for increase the ability of learning and memory. Type of test: in vivo, human. As to conditions: Homo sapiens, po; three pieces of 600 mg, average of four tests before and after ingesting; read-out: Increase rate (%) of memory ability. How it is done: A person administrates see a random series of 100 numbers, typed by PC, for 10 minutes and memory it. Then recite and write down the memorized number series. To check the recited series with the original one to see how many numbers are correct. In each testing at least has 10 minutes interval, and repeat four times. […] Each kind of drugs testing is done in half day, morning or afternoon only. The testing results were counted by one correct number for one point. Make the average value of four times testing of before and after drug ingesting, respectively. The increase of learning or memory ability is calculated by following equation and listed in Table 14: Rate of increase of memory ability=[(average value of four time testing before ingesting drug)−(average value of four times testing after ingesting drug)]×100%/(average value of four time testing before ingesting drug)

Test [2] relates to patients with toothache caused by a crowned tooth swelling. As to the kind of experiment: Analgesia and suppuration for tooth. Type of test: in vivo, human. As to conditions: 2 g every two hours. From the text:
It is not a best method in treating a toothache caused by a crowned tooth swelling that the ill tooth must be extracted or the crown must be destructed first. […] About 8 and 10 days were needed to suppurate and recovery completely when they could chew again. This method can keep the ill tooth without extraction.

SMILES strings stand for the structures. Several values for one entry are separate records, joined by “and”; a condition that tells them apart may be missing. Equal values may be shown once. Read-outs that look alike come from different tables or passages of the source.

For the compound `O=C(O)CC(O)C(=O)O` (stereo not shown) [Malic acid], the inhibition at 100 µg/mL in test [1] (adding 5% of coffee extract, read-out: inhibiting rate (%) (adding 5% of coffee extract)) is 100%; in test [1] (non adding coffee extract, read-out: Inhibiting rate (%) (non adding coffee extract)) it was 100%. For the same compound, the “Inhibiting rate (%) (adding 0.1 w/v % of drug)” value in the test on mice (with 0.1 w/v % of caffeine) was determined as 100%. Also, the “Inhibiting rate (%) (non-caffeine added)” value with mice (without caffeine) is listed as 96%. Further, the change in vivo at 1800 mg in the test with person was determined as 315%. Further, in test [2] (one value per patient), the “Days needed to suppurate and recovery completely” value was “About 8 days and ~10 days”. For the same compound, the Toothache pain entry in test [2] (two patients) was “pains were killed”.
